Experimental data as given in ChEMBL document CHEMBL1126089, “2-Alkynyl derivatives of adenosine and adenosine-5'-N-ethyluronamide as selective agonists at A2 adenosine receptors” (J Med Chem, 1992).

Legend:
Adenosine receptor A1 [1] = target: T1, Adenosine receptor A1 (Rattus norvegicus, UniProt P25099); assay: Binding affinity against Adenosine A1 receptor from rat brain membranes using [3H]CCPA
T1 sequence (P25099 whole entry): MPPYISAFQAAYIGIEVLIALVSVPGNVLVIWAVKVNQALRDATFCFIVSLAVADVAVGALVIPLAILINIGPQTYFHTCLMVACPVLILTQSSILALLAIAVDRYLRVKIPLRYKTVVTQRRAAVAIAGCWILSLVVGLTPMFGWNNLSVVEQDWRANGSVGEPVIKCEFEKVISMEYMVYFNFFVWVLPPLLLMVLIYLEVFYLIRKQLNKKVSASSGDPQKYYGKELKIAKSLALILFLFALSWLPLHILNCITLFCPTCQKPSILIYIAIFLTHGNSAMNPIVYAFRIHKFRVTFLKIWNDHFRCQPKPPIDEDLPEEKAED

Adenosine A2 receptor [2] = target: T2, Adenosine A2 receptor (Homo sapiens, UniProt P29275+P29274); assay: Maximal NECA stimulation of adenylate cyclase via Adenosine A2 receptor in human platelet membranes; format: cell membranes
[3] = Selectivity as ratio of IC50 for A1 adenosine receptor compared to EC50 for A2 adenosine receptor
Adenosine A2 receptor [4] = target: T2, Adenosine A2 receptor; assay: Maximal NECA stimulation of adenylate cyclase via A2 receptors in human platelet membranes; format: cell membranes
Adenosine receptor A1 [5] = target: T1, Adenosine receptor A1; assay: Binding affinity against high affinity component of Adenosine A1 receptor from rat brain membranes using [3H]-DPCPX; format: cell membranes, Membrane
Adenosine receptor A1 [6] = target: T1, Adenosine receptor A1; assay: Binding affinity against low affinity component of Adenosine A1 receptor from rat brain membranes using [3H]DPCPX; format: cell membranes, Membrane
Adenosine A2 receptor [7] = target: T3, Adenosine A2 receptor (Rattus norvegicus, UniProt P29276+P30543); assay: Binding affinity against Adenosine A2 receptor from rat striatal membrane with 50 nM CPA using [3H]NECA
Adenosine A2 receptor [8] = target: T2, Adenosine A2 receptor; assay: Agonistic activity at Adenosine A2 receptor; format: functional
Adenosine A2 receptor [9] = target: T2, Adenosine A2 receptor; assay: Binding affinity against A2 adenosine receptors from human platelet membranes using [3H]NECA
Adenosine receptor A1 [10] = target: T1, Adenosine receptor A1
Description: Binding affinity against adenosine A1 receptors from rat brain membranes using [3H]CCPA

Adenosine receptor A1 [11] = target: T1, Adenosine receptor A1; assay: Inhibition of adenylate cyclase via adenosine A1 receptors in rat fat cell membranes; format: functional, Membrane
Adenosine receptor A1 [12] = target: T1, Adenosine receptor A1; remark: listed apart in the source
Description: Binding affinity against low affinity component of adenosine A1 receptors from rat brain membranes using [3H]-DPCPX

Adenosine receptor A1 [13] = target: T1, Adenosine receptor A1; remark: listed apart in the source
Description: Binding affinity against high affinity component of adenosine A1 receptors from rat brain membranes using [3H]DPCPX

Adenosine A2 receptor [14] = target: T3, Adenosine A2 receptor
Adenosine A2 receptor [15] = target: T2, Adenosine A2 receptor
Adenosine A2 receptor [16] = target: T2, Adenosine A2 receptor; assay: Agonistic activity at adenosine A2 receptor; format: functional
Adenosine A2 receptor [17] = target: T2, Adenosine A2 receptor; assay: Maximal NECA stimulation of adenylate cyclase via adenosine A2 receptor in human platelet membranes; format: cell membranes
Adenosine receptor A1 [18] = target: T1, Adenosine receptor A1; assay: Inhibition of adenylate cyclase via Adenosine A1 receptor in rat fat cell membranes; format: functional, Membrane
Adenosine A2 receptor [19] = target: T3, Adenosine A2 receptor; assay: Binding affinity against A2 adenosine receptors from rat striatal membranes with 50 nM CPA using [3H]NECA
Adenosine A2 receptor [20] = target: T2, Adenosine A2 receptor; assay: Binding affinity against Adenosine A2 receptor from human platelet membranes using [3H]NECA
Adenosine receptor A1 [21] = target: T1, Adenosine receptor A1; assay: Binding affinity against A1 adenosine receptors from rat brain membranes using [3H]CCPA
[22] = target: Adenosine A2a receptor (Rattus norvegicus) (UniProt P30543); assay: Binding affinity against Adenosine A2 receptor from rat striatal membranes with 50 nM CPA using [3H]-NECA
Adenosine A2a receptor (Rattus norvegicus), sequence (P30543 whole entry, looked up): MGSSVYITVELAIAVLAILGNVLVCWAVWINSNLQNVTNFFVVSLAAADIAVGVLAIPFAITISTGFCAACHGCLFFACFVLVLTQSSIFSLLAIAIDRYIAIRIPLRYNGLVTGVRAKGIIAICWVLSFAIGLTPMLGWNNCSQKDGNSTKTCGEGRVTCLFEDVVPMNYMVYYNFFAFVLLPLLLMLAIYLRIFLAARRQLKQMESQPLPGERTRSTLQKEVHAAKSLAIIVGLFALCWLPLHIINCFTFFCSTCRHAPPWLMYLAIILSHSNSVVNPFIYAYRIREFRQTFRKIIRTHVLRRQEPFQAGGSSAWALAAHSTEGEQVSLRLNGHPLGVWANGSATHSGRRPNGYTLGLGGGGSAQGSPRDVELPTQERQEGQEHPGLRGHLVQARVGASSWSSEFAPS

Adenosine receptor A1 [23] = target: T1, Adenosine receptor A1; assay: Inhibition of adenylate cyclase via A1 receptors in rat fat cell membranes; format: functional, Membrane
[24] = target: Adenosine A2 receptor (Rattus norvegicus) (UniProt P29276+P30543); assay: Binding affinity against Adenosine A2 receptor from rat striatal membranes with 50 nM CPA using [3H]NECA
Adenosine A2 receptor [25] = target: T2, Adenosine A2 receptor; assay: Maximal NECA stimulation of adenylate cyclase via Adenosine A2 receptor in human platelet membranes.; format: cell membranes

| A2 selectivity [3] | Ki (Adenosine receptor A1 [5]) | Emax (Adenosine A2 receptor [8]) | Ki (Adenosine receptor A1 [10]) | IC50 (Adenosine receptor A1 [11]) | Ki (Adenosine receptor A1 [12]) | Ki (Adenosine receptor A1 [13]) | Ki (Adenosine A2 receptor [14]) | Ki (Adenosine A2 receptor [15]) | Emax (Adenosine A2 receptor [16]) | EC50 (Adenosine A2 receptor [17]) | SMILES | further results |
| --- | --- | --- | --- | --- | --- | --- | --- | --- | --- | --- | --- | --- |
| 23 | 0.067 µM | 100% | – | – | – | – | – | – | – | – | CCCCCCC#Cc1nc(N)c2ncn(C3O[C@H](C(=O)NCC)[C@@H](O)[C@H]3O)c2n1 (some centres undefined) | Ki (Adenosine receptor A1 [1]): 0.0644 µM; EC50 (Adenosine A2 receptor [2]): 13.5 µM; EC50 (Adenosine A2 receptor [4]): 0.585 µM; Ki (Adenosine receptor A1 [6]): 2.94 µM; Ki (Adenosine A2 receptor [7]): 0.0148 µM; Ki (Adenosine A2 receptor [9]): 0.159 µM |
| 42 | – | – | 0.0439 µM | 4.38 µM | 3.16 µM | 0.136 µM | 0.0038 µM | 0.0057 µM | 100% | 0.105 µM | CCCCC#Cc1nc(N)c2ncn([C@@H]3O[C@H](C(=O)NCC)[C@@H](O)[C@H]3O)c2n1 | – |
| 4 | – | – | 0.0252 µM | 2.91 µM | 0.823 µM | 0.0196 µM | 0.0063 µM | 0.0399 µM | 65% | 0.681 µM | CCCCCCC#Cc1nc(N)c2ncn([C@@H]3O[C@H](CO)[C@@H](O)[C@H]3O)c2n1 | – |
| 24 | – | – | 0.0215 µM | 3 µM | 0.849 µM | 0.016 µM | 0.0164 µM | 0.0073 µM | 65% | 0.127 µM | CCCC#Cc1nc(N)c2ncn([C@@H]3O[C@H](CO)[C@@H](O)[C@H]3O)c2n1 | – |
| 8 | – | – | 0.0284 µM | 3.38 µM | 1.22 µM | 0.0322 µM | 0.0028 µM | 0.0208 µM | 65% | 0.414 µM | CCCCCC#Cc1nc(N)c2ncn([C@@H]3O[C@H](CO)[C@@H](O)[C@H]3O)c2n1 | – |
| – | – | – | 0.0159 µM | 2.3 µM | 0.633 µM | 0.0125 µM | – | – | 65% | – | CCCCC#Cc1nc(N)c2ncn([C@@H]3O[C@H](CO)[C@@H](O)[C@H]3O)c2n1 | – |
| 34 | 0.171 µM | 100% | – | – | – | – | – | – | – | – | CCCCCC#Cc1nc(N)c2ncn(C3O[C@H](C(=O)NCC)[C@@H](O)[C@H]3O)c2n1 (some centres undefined) | Ki (Adenosine receptor A1 [1]): 0.089 µM; EC50 (Adenosine A2 receptor [2]): 0.0371 µM; EC50 (Adenosine A2 receptor [4]): 0.388 µM; Ki (Adenosine receptor A1 [6]): 2.91 µM; IC50 (Adenosine receptor A1 [18]): 13.1 µM; Ki (Adenosine A2 receptor [19]): 0.0047 µM |
| 44 | 0.033 µM | 100% | – | – | – | – | – | – | – | – | CCCC#Cc1nc(N)c2ncn([C@@H]3O[C@H](C(=O)NCC)[C@@H](O)[C@H]3O)c2n1 | Ki (Adenosine A2 receptor [20]): 0.0126 µM; Ki (Adenosine receptor A1 [21]): 0.0408 µM; EC50 [22]: 0.062 µM; IC50 (Adenosine receptor A1 [18]): 1.62 µM; IC50 (Adenosine receptor A1 [23]): 2.7 µM; A2 selectivity [24]: 2; EC50 (Adenosine A2 receptor [25]): 0.0195 µM |
